Experimental findings from ChEMBL document CHEMBL5576050, “Discovery of a DCAF11-dependent cyanoacrylamide-containing covalent degrader of BET-proteins” (Bioorg Med Chem Lett, 2024) are described below.

Each structure is given as a SMILES string. The source made the active and inactive calls. The rule behind the calls is not given here.

For assay [1], the target named is Bromodomain-containing protein 3 (Homo sapiens) (UniProt Q15059). Description: Induction of BRD3 degradation in human KBM-7 cells at 5 uM pretreated with carfilzomib for 1 hr followed by compound addition and measured after 6 hrs by Western blotting analysis. In kind it is cell-based. A general note: A western blot detects proteins with antibodies after separation by electrophoresis.
Sequence of Bromodomain-containing protein 3 (Homo sapiens) (Q15059 2-726 limits assumed): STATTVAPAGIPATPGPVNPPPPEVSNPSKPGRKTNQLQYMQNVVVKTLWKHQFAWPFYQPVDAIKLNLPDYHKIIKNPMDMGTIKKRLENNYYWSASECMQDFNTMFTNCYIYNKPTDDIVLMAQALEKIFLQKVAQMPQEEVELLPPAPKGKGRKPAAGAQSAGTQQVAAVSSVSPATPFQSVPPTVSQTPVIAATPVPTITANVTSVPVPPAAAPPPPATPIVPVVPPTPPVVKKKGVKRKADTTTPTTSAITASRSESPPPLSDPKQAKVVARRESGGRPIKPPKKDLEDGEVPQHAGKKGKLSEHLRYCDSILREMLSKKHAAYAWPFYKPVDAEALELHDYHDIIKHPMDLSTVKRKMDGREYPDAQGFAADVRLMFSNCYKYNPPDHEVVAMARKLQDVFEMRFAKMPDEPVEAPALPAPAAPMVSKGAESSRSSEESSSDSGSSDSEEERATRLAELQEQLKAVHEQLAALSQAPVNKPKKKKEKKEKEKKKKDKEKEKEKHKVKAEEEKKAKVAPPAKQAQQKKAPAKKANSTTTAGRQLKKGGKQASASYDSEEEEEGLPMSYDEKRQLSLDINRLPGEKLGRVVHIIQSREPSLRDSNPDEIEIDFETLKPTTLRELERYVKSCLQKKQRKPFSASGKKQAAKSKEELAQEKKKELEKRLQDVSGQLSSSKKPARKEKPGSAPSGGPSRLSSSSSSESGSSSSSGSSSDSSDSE

Assay [2] deals with T1, Bromodomain-containing protein 4 (Homo sapiens, UniProt O60885). Description: Induction of HA-tagged BRD4S degradation in human KBM-7 cells at 5 uM after 5 to 20 hrs by Western blotting analysis. It is filed as cell-based. Conditions: time 5-20 hrs.
For assay [3], the target named is T1, Bromodomain-containing protein 4. Description: Induction of BRD4S-BFP in DCAF11 knockout human K-BM7 cells transduced with sgRNA-resistant DCAF11 vector containing Cys-to-Ala mutant at 5 uM incubated for 6 hrs by flow cytometry analysis. In kind it is cell-based. To be noted: KBM-7.
For assay [4] the target is unchanged. Description: Induction of BRD4 degradation in DCAF11 knockout human KBM-7 cells at 5 uM after 6 hrs by Western blotting analysis. In kind it is cell-based.
Assay [5] has the same target. The assay can be described thus: Induction of HA-tagged BRD4S degradation in human KBM-7 cells at 5 uM pretreated with carfilzomib for 1 hr followed by compound addition and measured after 6 hrs by Western blotting analysis. It is filed as cell-based.
Assay [6] addresses Bromodomain-containing protein 2 (Homo sapiens) (UniProt P25440). The assay can be described thus: Induction of BRD2 degradation in human KBM-7 cells at 5 uM pretreated with DCAF11 binder 12 for 1 hr followed by compound addition and measured after 5 hrs by Western blotting analysis. In kind it is cell-based.
The subject of assay [7] is KBM-7. Description: Downregulation of c-MYC expression in DCAF11 knockout human KBM-7 cells at 5 uM after 6 hrs by Western blotting analysis. In kind it is functional, cell-based.
For assay [8], the target named is T1, Bromodomain-containing protein 4. Description: Induction of nLuc-tagged BRD4S degradation in human KBM-7 cells incubated for 2 to 24 hrs by nanoluciferase based assay. In kind it is cell-based. Conditions: for Activity: time 2-24 hrs.
Assay [9] has as its target Bromodomain-containing protein 3 (Homo sapiens) (UniProt Q15059). The assay can be described thus: Induction of BRD3 degradation in human KBM-7 cells at 5 uM incubated for 5 hrs by Western blotting analysis. It is filed as cell-based.
For assay [10], the target named is T1, Bromodomain-containing protein 4. The assay can be described thus: Induction of BRD4 degradation in human KBM-7 cells at 5 uM incubated for 5 hrs by Western blotting analysis. In kind it is cell-based.
For assay [11] the target is unchanged. Description: Induction of nLuc-tagged BRD4S degradation in human KBM-7 cells by nanoluciferase based assay. In kind it is cell-based. To be noted: time 2-24 hrs, TDE = time-dependent effect.
The target is the same in assay [12]. The assay can be described thus: Induction of BRD4S-BFP in DCAF11 knockout human K-BM7 cells transduced with sgRNA-resistant wild-type DCAF11 at 5 uM incubated for 6 hrs by flow cytometry analysis. In kind it is cell-based. Conditions: KBM-7.
For assay [13], the target named is Bromodomain-containing protein 3 (Homo sapiens) (UniProt Q15059). Description: Induction of BRD3 degradation in human KBM-7 cells at 5 uM pretreated with TAK-243 for 1 hr followed by compound addition and measured after 6 hrs by Western blotting analysis. In kind it is cell-based.
The target is the same in assay [14]. The assay can be described thus: Induction of BRD3 degradation in human KBM-7 cells at 5 uM pretreated with bortezomib for 1 hr followed by compound addition and measured after 6 hrs by Western blotting analysis. In kind it is cell-based.
In assay [15] the target is Bromodomain-containing protein 2 (Homo sapiens) (UniProt P25440). The assay can be described thus: Induction of BRD2 degradation in human KBM-7 cells at 5 uM pretreated with […] binder 11 for 1 hr followed by compound addition and measured after 5 hrs by Western blotting analysis. In kind it is cell-based.
Sequence of Bromodomain-containing protein 2 (Homo sapiens) (P25440 whole entry, looked up): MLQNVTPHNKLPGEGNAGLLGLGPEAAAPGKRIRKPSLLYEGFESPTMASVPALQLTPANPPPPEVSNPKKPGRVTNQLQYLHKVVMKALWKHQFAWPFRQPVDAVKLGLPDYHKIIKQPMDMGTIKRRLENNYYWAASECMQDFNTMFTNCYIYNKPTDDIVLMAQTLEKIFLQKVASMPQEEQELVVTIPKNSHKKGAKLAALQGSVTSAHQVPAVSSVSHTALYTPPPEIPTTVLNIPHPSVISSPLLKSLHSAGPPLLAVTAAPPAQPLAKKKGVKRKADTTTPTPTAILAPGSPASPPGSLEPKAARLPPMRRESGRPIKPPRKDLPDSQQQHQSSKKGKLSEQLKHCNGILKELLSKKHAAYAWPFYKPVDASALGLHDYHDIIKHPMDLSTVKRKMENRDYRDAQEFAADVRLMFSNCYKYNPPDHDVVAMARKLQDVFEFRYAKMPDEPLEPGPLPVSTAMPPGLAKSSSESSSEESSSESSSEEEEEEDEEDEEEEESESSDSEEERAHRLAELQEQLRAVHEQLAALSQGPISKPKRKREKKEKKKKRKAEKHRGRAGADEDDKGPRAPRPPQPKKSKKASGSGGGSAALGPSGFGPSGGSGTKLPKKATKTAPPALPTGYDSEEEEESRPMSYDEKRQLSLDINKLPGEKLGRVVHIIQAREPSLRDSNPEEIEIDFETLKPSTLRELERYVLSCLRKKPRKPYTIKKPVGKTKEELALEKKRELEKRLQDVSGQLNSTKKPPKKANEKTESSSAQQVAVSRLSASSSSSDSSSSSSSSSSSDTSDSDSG
In assay [16] the target is Bromodomain-containing protein 3 (Homo sapiens) (UniProt Q15059). Description: Induction of BRD3 degradation in DCAF11 knockout human KBM-7 cells at 5 uM after 6 hrs by Western blotting analysis. It is filed as cell-based.
Assay [17] deals with T1, Bromodomain-containing protein 4. Description: Induction of BRD4 degradation in human KBM-7 cells at 5 uM pretreated with […] binder 11 for 1 hr followed by compound addition and measured after 5 hrs by Western blotting analysis. It is filed as cell-based.
For assay [18] the target is unchanged. Description: Induction of BRD4 degradation in human KBM-7 cells at 5 uM pretreated with […] binder 12 for 1 hr followed by compound addition and measured after 5 hrs by Western blotting analysis. It is filed as cell-based.
The subject of assay [19] is KBM-7. Description: Downregulation of c-Myc expression in human KBM-7 cells at 5 uM after 5 hrs by Western blotting analysis. In kind it is functional, cell-based.
Assay [20] addresses T1, Bromodomain-containing protein 4. Description: Induction of HA-tagged BRD4S degradation in human KBM-7 cells at 5 uM pretreated with bortezomib for 1 hr followed by compound addition and measured after 6 hrs by Western blotting analysis. It is filed as cell-based.
Assay [21] concerns the target Bromodomain-containing protein 3 (Homo sapiens) (UniProt Q15059). Description: Induction of BRD3 degradation in human KBM-7 cells at 5 uM pretreated with […] binder 11 for 1 hr followed by compound addition and measured after 5 hrs by Western blotting analysis. In kind it is cell-based.
Assay [22] addresses T1, Bromodomain-containing protein 4. Description: Induction of HA-tagged BRD4S degradation in human KBM-7 cells at 5 uM pretreated with TAK-243 for 1 hr followed by compound addition and measured after 6 hrs by Western blotting analysis. In kind it is cell-based.
The target in assay [23] is Bromodomain-containing protein 3 (Homo sapiens) (UniProt Q15059). The assay can be described thus: Induction of BRD3 degradation in human KBM-7 cells at 5 uM pretreated with […] binder 12 for 1 hr followed by compound addition and measured after 5 hrs by Western blotting analysis. In kind it is cell-based.

With `Cc1sc2c(c1C)C(c1ccc(Cl)cc1)=N[C@@H](CC(=O)NCCCCCCNC(=O)COc1ccc(CNC(=O)/C(C#N)=C/c3ccc4ccccc4c3)cc1)c1nnc(C)n1-2`, the result in assay [1], in assay [3], in assay [4], in assay [5], in [6] and in [13] was inactive. Besides, the outcome in assay [14], in assay [15], in assay [16], in assay [17], in assay [18] and in assay [20] was inactive. Also, the outcome in [21], in assay [22] and in assay [23] was inactive. Also, the outcome (in assay [2]; in the assay on KBM-7 [7]; in assay [9]; in assay [10]; in assay [12]; in the assay with KBM-7 [19]) was Active. Besides, in assay [8], half-maximal degradation (DC50) was put at 0.305 µM. The Activity result is “Dose-Dependent Effect” in assay [8] and “Tde” in assay [11].
As for `Cc1sc2c(c1C)C(c1ccc(Cl)cc1)=N[C@@H](CC(=O)NCCCCCCNC(=O)COc1ccc(CNC(=O)/C=C/c3ccc4ccccc4c3)cc1)c1nnc(C)n1-2`, the outcome (in assay [8]; in the assay with KBM-7 [19]) was inactive. The outcome in [9] and in [10] was Active.
Turning to `Cc1sc2c(c1C)C(c1ccc(Cl)cc1)=N[C@@H](CC(=O)NCCOCCOCCNC(=O)COc1ccc(CNC(=O)/C(C#N)=C/c3ccc4ccccc4c3)cc1)c1nnc(C)n1-2`, the DC50 (as a rule, the concentration at which degradation of the target reaches its halfway point) in assay [8] came to 0.396 µM. The Activity entry in [8] is “Dose-Dependent Effect”; in assay [11], “Tde”.
For the compound `Cc1sc2c(c1C)C(c1ccc(Cl)cc1)=N[C@@H](CC(=O)NCCCCCCNC(=O)COc1ccc(CNC(=O)CCc3ccc4ccccc4c3)cc1)c1nnc(C)n1-2`, the outcome in [9] and in assay [10] was Active. Besides, the outcome in the assay on KBM-7 [19] was inactive.
